# In the supplement of paper PMC10307832:
# What was measured:
# Experiment in all cases: relative viability (nuclei count vs DMSO), 5 days (fraction); higher = more cells survive
# [1] = compound: Cc1nc(C(=O)NCC(=O)O)c(O)c2ccc(Oc3ccccc3)cc12 [FG-4592] + C[C@@H](Oc1cc(-c2cnn(C3CCNCC3)c2)cnc1N)c1c(Cl)ccc(F)c1Cl [Crizotinib] (partner 1 µM)
# How it was run: (§1)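 After 5 days of treatment, lung cancer cells in 1536-well plates were fixed and stained in a single step (final 0.05% Triton X-100, 1% formaldehyde, 1 ug/ml Hoechst) and their nuclei counted on 4× images. Treatment had been applied by pin tool the day after seeding as one drug alone or as a fixed anchor-drug dose with five library-drug doses (not always all listed) in √10 steps. Relative viability is the nuclei count of treated wells divided by that of vehicle wells, and values are medians of duplicate plates.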
# [2] = compound: CC1=CC(=C(N1C2=CC=C(C=C2)Cl)C)C(=O)CN3CCCCC3 [IU1-47] + C[C@]1(O)C[C@@H](c2nc(-c3ccc4ccc(-c5ccccc5)nc4c3)c3c(N)nccn32)C1 [Linsitinib] (partner 1 µM)
# How it was run: as §1
# [3] = compound: CC1=CC(=C(N1C2=CC=C(C=C2)Cl)C)C(=O)CN3CCCCC3 [IU1-47] + CC(=O)c1c(C)c2cnc(Nc3ccc(N4CCNCC4)cn3)nc2n(C2CCCC2)c1=O [Palbociclib] (partner 0.5 µM)
# How it was run: as §1
# [4] = compound: CC1=CC(=C(N1C2=CC=C(C=C2)Cl)C)C(=O)CN3CCCCC3 [IU1-47] + O=C(c1cc(Cc2n[nH]c(=O)c3ccccc23)ccc1F)N1CCN(C(=O)C2CC2)CC1 [Olaparib] (partner 8 µM)
# How it was run: as §1
cell line,measurement,setting,value
UMC-11,relative viability,[1]; first compound 0.08 µM,0.546
same,relative viability,[1]; first compound 0.253 µM,0.644
same,relative viability,[1]; first compound 0.8 µM,0.582
same,relative viability,[1]; first compound 2.53 µM,0.642
same,relative viability,[1]; first compound 8 µM,0.536
same,relative viability,[2]; first compound 0.08 µM,0.996
same,relative viability,[2]; first compound 0.253 µM,0.978
same,relative viability,[2]; first compound 0.8 µM,1.12
same,relative viability,[2]; first compound 2.53 µM,1.07
same,relative viability,[2]; first compound 8 µM,0.952
same,relative viability,[3]; first compound 0.08 µM,0.353
same,relative viability,[3]; first compound 0.253 µM,0.339
same,relative viability,[3]; first compound 0.8 µM,0.333
same,relative viability,[3]; first compound 2.53 µM,0.322
same,relative viability,[3]; first compound 8 µM,0.351
same,relative viability,[4]; first compound 0.08 µM,0.402
same,relative viability,[4]; first compound 0.253 µM,0.429
same,relative viability,[4]; first compound 0.8 µM,0.368
same,relative viability,[4]; first compound 2.53 µM,0.328
same,relative viability,[4]; first compound 8 µM,0.373
